{"source": "paper PMC8880313", "about": "“Discovery of Novel Andrographolide Derivatives as Antiviral Inhibitors against Human Enterovirus A71” (Pharmaceuticals, 2022)", "key": {"[1]": {"test_system": "EV-A71", "experiment": "Post-treatment assay with viral plaque assay", "assay_type": "cell-based, human enterovirus A71 (EV-A71) strain 41", "conditions": "for reduction in viral titre: post-treatment, 12 hpi", "method": "Firstly, we performed cell viability assay to evaluate the cytotoxicity profile of the 19 hits. Cells seeded overnight were treated with the hit compounds at 10 µM. […] Anti-EV-A71 activity of AGP-253 had been illustrated and discussed previously. We were particularly interested in ZAF-46 and ZAF-47 as they belonged to the same series bearing novel 14-quinolinoxy and 17-hydro-8,9-olefin modifications (Figure 2b) that could potentially open up new targets for EV-A71 therapeutics. Additional cell viability assays were performed for ZAF-46 and ZAF-47 at different concentrations to identify the low cytotoxic concentrations for downstream post-treatment assays. For post-treatment assays, cells seeded overnight were infected with EV-A71 and subsequently treated with ZAF-46 and ZAF-47 at different concentrations. […] Treatment with ZAF-46 led to 1.4 log reduction at 10 µM and 2.4 log reduction at 20 µM (Figure 2c) while treatment with ZAF-47 led to 0.8 log reduction at 5 µM, 1.1 log reduction at 10 µM and 2.1 log reduction at 20 µM (Figure 2d). CC50 and IC50 for both compounds were determined and used to derive their SI (Table 2). ZAF-47 was selected for further downstream analysis due to its higher SI value which indicate higher pharmacological value for clinical use.\n(§1) To determine the inhibitory profiles of the hits, post treatment assay was performed. Seeded 24-well plates, with 1.5 × 10^5 RD cells per well, were incubated overnight at 37 °C with 5% CO2. The seeded cells were infected with EV-A71 (100 µL per well, MOI = 1) for 1 h at 37 °C with 5% CO2 and then rinsed with 1 mL of PBS twice. Different concentrations of the hits were used to treat the infected cells for 12 h at 37 °C with 5% CO2. At 12 hpi, the plates were frozen and thawed for 2 cycles (−80°C; 37 °C) before collection of supernatants to measure the viral titres via viral plaque assay.\nMeasurement of the viral titres from collected supernatants was derived from viral plaque assays. To do this, 24-well plates, seeded with 2.4 × 10^5 RD cells per well, were used in plaque assays for EV-A71, EV-D68, Echo7, CV-A6, CV-A16 and CV-A24 while 24-well plates, seeded with 1.2 × 10^5 Vero cells per well, were used in plaque assays for CV-B5. Seeded cells were incubated overnight at 37 °C with 5% CO2. Viral supernatants were diluted from 10^−1 to 10^−7 in reduced serum DMEM before infecting the cells with a volume of 100 µL for 1 h at 37 °C with 5% CO2 (33 °C instead for EV-D68). Cells were rinsed twice with PBS before overlaying with 1 mL of reduced serum DMEM containing 0.5% agarose (Vivantis, Shah Alam, Malaysia). Cells infected with Echo7 supernatants were incubated for 2 days, cells infected with CV-A24 and CV-B5 supernatants were incubated for 3 days and cells infected with EV-A71, CV-A6, CV-A16 and EV-D68 supernatants were incubated for 4 days for the formation of plaques. Subsequently, the cells were fixed and stained overnight with 4% paraformaldehyde and 1% crystal violet (Sigma-Aldrich). Subsequent formation of viral plaques was counted manually to quantify the viral titre in PFU/mL"}, "[2]": {"test_system": "Echo7", "experiment": "Post-treatment assay, antiviral spectrum", "assay_type": "cell-based, Echovirus 7 strain Wallace", "method": "(§2) We were also interested in the antiviral potential of ZAF-47 against other Enteroviruses. As such, we performed post-treatment assay on RD cells infected with other Enteroviruses such as CV-A16, CV-A6, Echo7, CV-B5, CV-A24 and EV-D68.\nas §1\n(§3) Measurement of the viral titres from collected supernatants was derived from viral plaque assays. To do this, 24-well plates, seeded with 2.4 × 10^5 RD cells per well, were used in plaque assays for EV-A71, EV-D68, Echo7, CV-A6, CV-A16 and CV-A24 while 24-well plates, seeded with 1.2 × 10^5 Vero cells per well, were used in plaque assays for CV-B5. Seeded cells were incubated overnight at 37 °C with 5% CO2. […] Subsequent formation of viral plaques was counted manually to quantify the viral titre in PFU/mL […]"}, "[3]": {"test_system": "CV-B5", "experiment": "Post-treatment assay, antiviral spectrum", "assay_type": "cell-based, Coxsackievirus B5", "method": "as §2, §1, §3"}, "[4]": {"test_system": "EV-A71", "experiment": "Pre-treatment assay", "assay_type": "cell-based, human enterovirus A71 (EV-A71) strain 41", "conditions": "pre-treatment 2 h, highest concentration, 12 hpi", "method": "To confirm this finding, assays to investigate the effect of ZAF-47 on EV-A71 entry into cells were performed. With pre-treatment assay, we first treated the cells with different concentrations of ZAF-47 before subjecting them to EV-A71 infection. The aim was to investigate if ZAF-47 was able to bind to host surface receptors which would prevent the virions from binding and thus blocking viral entry. […] Even at the highest concentration, the reduction in viral titre (0.8 log10 PFU/mL decrease) was not as pronounced as post-treatment and could likely be due to drug toxicity. Thus, it is unlikely that ZAF-47 inhibits EV-A71 infection by binding with host receptors to block viral entry. With co-treatment assay, we first treated EV-A71 virions with ZAF-47 for 30 min before infecting the cells. The aim was to investigate if ZAF-47 was able to bind to viral surface proteins which would prevent the virions from binding to the host receptors and thus blocking viral entry. […] Thus, it is unlikely that ZAF-47 blocks EV-A71 entry into host cells by binding to viral surface proteins. Instead, using entry bypass assay, we were able to deduce that ZAF-47 most likely targets EV-A71 post-entry stages. […]\nSeeded 24-well plates, with 1.5 × 10^5 RD cells per well, were incubated overnight at 37 °C with 5% CO2. […] The plates were frozen down at 12 hpi for viral titre quantification using viral plaque assay."}}, "data": [{"smiles": "CC(=O)OC[C@]1(C)C(=O)CC[C@@]2(C)C(C/C=C3/C(=O)OC[C@@H]3Oc3cccc4cccnc34)=C(C)CC[C@@H]21", "note": "[ZAF-47, (14β)-(8′-Quinolinoxy)-3-ketone-9-dehydro-17-hydro-19-acetoxy–andrographolide]", "values": [{"measurement": "reduction in viral titre", "setting": "[1]; 5 µM", "result": 0.8, "unit": "log"}, {"measurement": "reduction in viral titre", "setting": "[1]; 10 µM", "result": 1.1, "unit": "log"}, {"measurement": "reduction in viral titre", "setting": "[1]; 20 µM", "result": 2.1, "unit": "log"}, {"measurement": "IC50", "setting": "[1]; Enterovirus A, EVA71, EV-A71-infected RD cells, MOI = 1, 12 h treatment, viral plaque assay", "result": 2.06, "unit": "µM"}, {"measurement": "Selectivity Index (SI)", "setting": "[1]; SI = CC50/IC50", "result": 14.35}, {"measurement": "viral titre", "setting": "[2]; 10 µM, Echo7-infected RD cells", "result": "reducing the viral titres of the above-listed enteroviruses significantly"}, {"measurement": "IC50", "setting": "[2]; Echo7, Enterovirus B, drug treatment duration 12 h, RD cells", "result": 6.7, "unit": "µM"}, {"measurement": "viral titre", "setting": "[3]; 10 µM, CV-B5-infected RD cells", "result": "reducing the viral titres of the above-listed enteroviruses significantly"}, {"measurement": "IC50", "setting": "[3]; CVB5, CV-B5, Enterovirus B, drug treatment duration 12 h, RD cells", "result": 2.46, "unit": "µM"}, {"measurement": "reduction in viral titre", "setting": "[4]", "result": 0.8, "unit": "log10 PFU/mL"}]}]}
